The results in this text go back to ChEMBL document CHEMBL1150240, “Synthesis and structure-activity relationships of 4-pyridones as potential antimalarials” (J Med Chem, 2008).

The source made the active and inactive calls. No cut-off for these calls is given here.

Experiment [1] relates to Plasmodium yoelii. Put plainly: Antimalarial activity as reduced parasitaemia against Plasmodium yoelii YM in CD1 mice (Mus musculus) after 7 peroral doses over 4 days. The conditions noted are these: po, 96 h. In kind it is functional.
Experiment [2] deals with Plasmodium falciparum. Put plainly: Antimalarial activity against Plasmodium falciparum T9-96 infected Rhesus positive human erythrocytes by [3H]hypoxanthine uptake. Type of experiment: functional, organism-based.
Experiment [3] relates to Plasmodium falciparum. Nature of the experiment: Antimalarial activity against Plasmodium falciparum 3D7A infected erythrocytes by [3H]hypoxanthine uptake. In kind it is functional, organism-based.
Experiment [4] relates to Plasmodium falciparum. Put plainly: Antimalarial activity against Plasmodium falciparum FCR3-A infected erythrocytes as [3H]hypoxanthine incorporation. In kind it is functional, organism-based.
The subject of experiment [5] is Plasmodium yoelii. Nature of the experiment: Antimalarial activity as reduced parasitaemia against Plasmodium yoelii YM in CD1 mice (Mus musculus) given a single peroral dose. In kind it is functional. The conditions noted are these: po.
In experiment [6] the test system is Plasmodium falciparum. Put plainly: Antimalarial activity as parasite elimination against Plasmodium falciparum infected Aotus monkeys at 10 mg/kg/day for 7 days. In kind it is functional, organism-based.

In the case of `Cc1[nH]c(C)c(-c2ccc(Cl)cc2)c(=O)c1Cl`, in experiment [1], it took a dose of 20 mg/kg to reach the 50% effect level (ED50). In experiment [2], this molecule came in with an IC50 of 2500 nM.
Regarding `Cc1[nH]c(C)c([C@H]2CC[C@H](c3ccc(Cl)cc3)CC2)c(=O)c1Cl`, the ED50 in experiment [1] was 0.6 mg/kg. The molecule also yielded an IC50 in experiment [2] of 50 nM.
For `Cc1[nH]c(C)c(-c2ccc(Oc3ccc(F)cc3)cc2)c(=O)c1Br`, in that order: 0.6 mg/kg and 40 nM.
In the case of `Cc1[nH]cc(Br)c(=O)c1-c1ccc(Oc2ccc(OC(F)(F)F)cc2)cc1`, in experiment [3], the IC50 was 110 nM.
As to `Cc1[nH]c(C)c(-c2ccccc2)c(=O)c1Cl`, the ED50 in experiment [1] is 22 mg/kg. The molecule also yielded an IC50 in experiment [2] of 11000 nM.
For `Cc1[nH]c(C)c(-c2ccc(-c3ccc(Cl)cc3)cc2)c(=O)c1Cl`, in that order: 0.7 mg/kg and 400 nM.
`Cc1nc(C)c(Cl)c(O)c1Cl` [CLOPIDOL] came in with an ED50 in experiment [1] of 40 mg/kg. This molecule also returned an IC50 in experiment [2] of 20000 nM.
For the molecule `O=c1c(-c2ccc(Oc3ccc(OC(F)(F)F)cc3)cc2)c[nH]c(C(F)(F)F)c1Br`, the IC50 in experiment [3] is above 1000 nM.
Molecule `Cc1[nH]c(C)c(-c2ccc(Oc3cccc(Cl)c3)cc2)c(=O)c1Cl` gave an ED50 in experiment [1] above 5 mg/kg. For the same molecule, in experiment [2], the IC50 turned out to be 30 nM.
Regarding `Cc1[nH]c(C)c(-c2ccc(Oc3cccc(C(F)(F)F)c3)cc2)c(=O)c1Cl`, the IC50 in experiment [4] is 2.5 nM; in experiment [3] it was 5 nM; in experiment [2], 30 nM. Further, the ED50 in experiment [1] and in experiment [5] was 0.2 mg/kg throughout.
On to `Cc1[nH]c(C)c(-c2ccc(Oc3ccc(Cl)cc3)cc2)c(=O)c1Br`, for which the results for the ED50 in experiment [1] and in experiment [5] were 0.3 mg/kg and 5 mg/kg, respectively. The molecule also yielded an IC50 in experiment [2] of 40 nM.
Consider `Cc1[nH]c(C)c(-c2ccccc2Oc2ccc(OC(F)(F)F)cc2)c(=O)c1Br`, for which the half-inhibitory concentration (IC50) in experiment [3] was determined as 400 nM.
Molecule `Cc1cc(=O)c(-c2ccc(Oc3ccc(C(F)(F)F)cc3)cc2)c(C)[nH]1` registered an ED50 in experiment [1] of 1.3 mg/kg. Moreover, in experiment [2], the IC50 was 500 nM.
For the molecule `Cc1[nH]c(C)c(-c2ccc(Oc3ccc(C(F)(F)F)cc3)cc2)c(=O)c1Br`, the ED50 in experiment [1] was determined as 0.3 mg/kg; in experiment [5], 1.1 mg/kg. In experiment [2], this molecule registered an IC50 of 30 nM.
In experiment [3], `Cc1[nH]c(C(F)(F)F)c(Br)c(=O)c1-c1ccc(Oc2ccc(OC(F)(F)F)cc2)cc1` registered an IC50 above 1000 nM.
As to `Cc1cc(=O)c(-c2ccc(Oc3ccc(Cl)cc3)cc2)c(C)n1O`, the ED50 in experiment [1] is above 1 mg/kg. Moreover, inhibition in experiment [2] was half-maximal at 2200 nM (IC50).
The matching figures for `CCCCCCCCc1c(C)[nH]c(C)c(Cl)c1=O`: above 60 mg/kg and 4000 nM.
The matching figures for `Cc1c(Br)c(=O)c(-c2ccc(Oc3ccc(Cl)cc3)cc2)c(C)n1O`: 1 mg/kg and 450 nM.
The matching figures for `Cc1[nH]c(C)c(-c2ccc(Oc3ccc(Cl)cc3)cc2)c(=O)c1Cl`: 0.6 mg/kg and 60 nM.
`Cc1[nH]c(C)c(-c2cccc(Oc3ccc(OC(F)(F)F)cc3)c2)c(=O)c1Br` gave an IC50 in experiment [3] of 7 nM.
`Cc1[nH]c(C)c(-c2ccc(Oc3ccc(OC(F)(F)F)cc3)cc2)c(=O)c1Cl`: the results for the IC50 in experiment [4], in experiment [3] and in experiment [2] were 1 nM, 5 nM and 30 nM, respectively. Besides, the ED50 in experiment [1] came out at 0.2 mg/kg; in experiment [5] it was 0.4 mg/kg. The result in experiment [6] was Active.
Regarding `CCN(CC)CCCC(C)Nc1ccnc2cc(Cl)ccc12` (centres undefined) [CHLOROQUINE], the ED50 in experiment [1] was determined as 1.8 mg/kg.
In the case of `Cc1[nH]c(C)c(-c2ccc(Oc3ccc(OC(F)(F)F)cc3)cc2)c(=O)c1Br`, the 50% effective dose (ED50) in experiment [1] came out at 0.3 mg/kg; in experiment [5], 0.2 mg/kg. Also, the IC50 came out at 8 nM in experiment [3] and 30 nM in experiment [2]. In experiment [6], the result was Active.
In experiment [3], `Cc1[nH]c(C)c(C(F)(F)F)c(=O)c1-c1ccc(Oc2ccc(OC(F)(F)F)cc2)cc1` gave an IC50 of 30 nM.
For the molecule `COc1c(C)[nH]c(C)c(-c2ccc(Oc3cccc(C(F)(F)F)c3)cc2)c1=O`, 300 nM corresponded to half-maximal inhibition in experiment [3] (IC50).
As to `Cc1[nH]c(C)c(-c2ccc(Oc3ccccc3)cc2)c(=O)c1Br`, in experiment [1], the 50% effect level (ED50) was put at a dose of 4 mg/kg. In experiment [2], the IC50 came to 150 nM.
Regarding `Cc1[nH]cc(-c2ccc(Oc3ccc(OC(F)(F)F)cc3)cc2)c(=O)c1Br`, in experiment [3], 200 nM corresponded to half-maximal inhibition (IC50).
The same measure, in the same setting: in the case of `Cc1[nH]c(C)c(-c2ccc(Oc3ccc(OC(F)(F)F)cc3)cc2)c(=O)c1CN1CCCC1` it was 1290 nM.
The molecule `Cc1[nH]c(C)c(-c2ccc(Oc3cccc(Cl)c3)cc2)c(=O)c1Br` returned an ED50 in experiment [1] of 3.9 mg/kg. The molecule further showed an IC50 in experiment [2] of 30 nM.
Consider `Cc1[nH]c(C)c(-c2ccc(Oc3cccc(C(F)(F)F)c3)cc2)c(=O)c1Br`, for which the values for the ED50 in experiment [1] and in experiment [5] were 0.6 mg/kg and 3.6 mg/kg, respectively. Further, the IC50 in experiment [2] stood at 30 nM.
For `Cc1[nH]c(C)c([N+](=O)[O-])c(=O)c1-c1ccc(Oc2ccc(OC(F)(F)F)cc2)cc1`, inhibition in experiment [3] was half-maximal at 30 nM (IC50).
As to `O=C1C(O)=C([C@H]2CC[C@H](c3ccc(Cl)cc3)CC2)C(=O)c2ccccc21` [ATOVAQUONE], the IC50 in experiment [4] turned out to be 1360 nM; in experiment [2], 3 nM. This molecule also had an ED50 in experiment [1] of 0.03 mg/kg.
In the case of `Cc1[nH]c(C)c(-c2ccc(Oc3ccc(C(F)(F)F)cc3)cc2)c(=O)c1Cl`, in experiment [1], the 50% effect level (ED50) was put at a dose of 0.6 mg/kg. Further, the IC50 in experiment [2] is 60 nM.
As for `Cc1cc(=O)c(-c2ccc(Oc3ccc(OC(F)(F)F)cc3)cc2)c(C)[nH]1`, the ED50 in experiment [1] is above 5 mg/kg. Besides, the IC50 in experiment [3] and in experiment [2] was 160 nM each time.
Consider `Cc1cc(=O)c(-c2ccc(Oc3ccc(Cl)cc3)cc2)c(C)[nH]1`, for which the ED50 in experiment [1] turned out to be 2.5 mg/kg. The IC50 in experiment [2] came to 250 nM.
